Reference: patent US10709707B2, “Methods of treating ocular conditions” (Oyster Point Pharma, Inc., priority 2016, dated 2020)
Where “and” joins values, the source holds several entries; their conditions need not be identical. Equal values may be shown once. Entries after “also recorded” stand apart in the source; their conditions may differ. Read-outs that look alike come from different tables or passages of the source.

Assays:
human α3β2 = target: T1, human α3β2 (Homo sapiens, UniProt P17787+P32297); test: Receptor binding α3β2, recombinant human receptors in HEK cells; details: [3H]-S-nicotine, human α3β2 expressed in HEK cells
T1 construct: expressed in transfected cells
T1 sequence (P32297 32-505): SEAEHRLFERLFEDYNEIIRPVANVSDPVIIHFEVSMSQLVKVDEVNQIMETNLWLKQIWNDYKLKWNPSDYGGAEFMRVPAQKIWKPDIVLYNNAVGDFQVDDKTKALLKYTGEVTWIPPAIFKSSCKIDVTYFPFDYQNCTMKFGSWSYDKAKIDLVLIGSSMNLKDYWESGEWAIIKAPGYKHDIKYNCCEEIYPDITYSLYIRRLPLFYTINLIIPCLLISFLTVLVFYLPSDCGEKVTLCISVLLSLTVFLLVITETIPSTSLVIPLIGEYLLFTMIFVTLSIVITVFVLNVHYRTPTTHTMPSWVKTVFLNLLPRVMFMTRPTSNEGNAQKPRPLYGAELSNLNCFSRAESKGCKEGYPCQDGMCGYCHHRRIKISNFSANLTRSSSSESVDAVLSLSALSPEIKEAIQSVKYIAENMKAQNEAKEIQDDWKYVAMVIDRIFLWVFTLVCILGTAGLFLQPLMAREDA
T1 sequence (P17787 26-502): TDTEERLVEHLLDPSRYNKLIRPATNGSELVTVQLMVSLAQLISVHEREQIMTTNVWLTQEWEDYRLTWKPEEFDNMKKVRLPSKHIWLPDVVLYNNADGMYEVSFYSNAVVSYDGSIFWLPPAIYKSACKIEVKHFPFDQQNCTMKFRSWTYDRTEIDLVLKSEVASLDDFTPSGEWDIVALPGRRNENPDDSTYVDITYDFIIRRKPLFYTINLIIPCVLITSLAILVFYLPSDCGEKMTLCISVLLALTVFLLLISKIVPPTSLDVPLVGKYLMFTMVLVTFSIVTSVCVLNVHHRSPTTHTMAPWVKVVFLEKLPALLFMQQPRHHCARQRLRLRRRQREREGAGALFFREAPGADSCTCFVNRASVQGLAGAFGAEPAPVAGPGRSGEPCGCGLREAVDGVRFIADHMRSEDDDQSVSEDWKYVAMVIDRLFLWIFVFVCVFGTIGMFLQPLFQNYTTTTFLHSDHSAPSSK

[1] = target: T2, ganglionic receptor (α3β4) (Homo sapiens, UniProt P30926+P32297); test: Receptor binding ganglionic receptor, SH-SY5Y membranes
T2 construct: endogenous in cells
T2 sequence (P32297 32-505): as the sequence (P32297 32-505) above
T2 sequence (P30926 22-498): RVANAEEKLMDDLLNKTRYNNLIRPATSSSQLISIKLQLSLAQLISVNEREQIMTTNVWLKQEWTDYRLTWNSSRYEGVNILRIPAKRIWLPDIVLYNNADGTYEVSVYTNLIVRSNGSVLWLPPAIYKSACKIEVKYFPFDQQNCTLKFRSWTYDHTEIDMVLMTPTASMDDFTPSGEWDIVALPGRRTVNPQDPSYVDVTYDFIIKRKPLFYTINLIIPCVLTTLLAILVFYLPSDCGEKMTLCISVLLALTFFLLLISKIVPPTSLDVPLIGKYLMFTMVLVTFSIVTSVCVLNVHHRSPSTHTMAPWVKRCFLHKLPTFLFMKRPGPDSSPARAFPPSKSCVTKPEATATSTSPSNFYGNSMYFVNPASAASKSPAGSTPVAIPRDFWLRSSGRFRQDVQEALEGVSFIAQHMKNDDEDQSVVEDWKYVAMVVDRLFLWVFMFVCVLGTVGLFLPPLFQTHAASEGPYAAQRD

a6b3b4a5 = a6b3b4a5 (Homo sapiens, UniProt P30926+Q15825); test: Receptor binding a6b3b4a5
human α4β2 = human α4β2 (Homo sapiens, UniProt P17787+P43681); test: Receptor function α4β2, Ca++ flux; type: cell-based
Chain of human α4β2 (P43681 29-627 limits assumed): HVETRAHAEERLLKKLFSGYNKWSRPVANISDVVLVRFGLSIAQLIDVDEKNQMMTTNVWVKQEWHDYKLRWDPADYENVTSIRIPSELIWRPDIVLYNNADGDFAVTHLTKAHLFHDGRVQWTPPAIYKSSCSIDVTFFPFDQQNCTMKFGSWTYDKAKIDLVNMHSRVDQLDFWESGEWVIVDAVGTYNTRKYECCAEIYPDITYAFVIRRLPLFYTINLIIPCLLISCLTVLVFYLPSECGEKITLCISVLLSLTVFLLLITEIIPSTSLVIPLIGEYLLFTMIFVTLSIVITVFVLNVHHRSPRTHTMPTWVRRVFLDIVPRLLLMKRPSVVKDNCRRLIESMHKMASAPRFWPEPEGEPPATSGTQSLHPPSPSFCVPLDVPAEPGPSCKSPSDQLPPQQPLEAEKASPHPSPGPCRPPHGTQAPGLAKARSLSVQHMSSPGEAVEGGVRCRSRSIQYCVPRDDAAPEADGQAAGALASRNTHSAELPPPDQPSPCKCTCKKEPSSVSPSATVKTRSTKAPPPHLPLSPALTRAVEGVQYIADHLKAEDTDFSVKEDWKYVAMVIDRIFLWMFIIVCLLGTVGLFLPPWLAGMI
Chain of human α4β2 (P17787 26-502): as the sequence (P17787 26-502) above
Procedure: There are two types of α4β2-containing nAChR, depending on which subunit occupies the fifth subunit of the pentaineric complex. There is a high sensitivity subtype, (α4β2)2β2, and a low sensitivity subtype, (α4β2)2α4. Targacept used a rudimentary assay to encourage the expression of one subtype over the other based on incubation temperature.

muscle receptor (α1β1δγ) = target: T3, muscle receptor (α1β1δγ) (Homo sapiens, UniProt P02708+P07510+Q07001); test: Receptor function muscle receptor, TE671 cells; type: cell-based
T3 construct: endogenous in cells; host or cells: TE671 (TE-671) cells / membranes (per the earlier reading)
T3 sequence (P11230 24-501): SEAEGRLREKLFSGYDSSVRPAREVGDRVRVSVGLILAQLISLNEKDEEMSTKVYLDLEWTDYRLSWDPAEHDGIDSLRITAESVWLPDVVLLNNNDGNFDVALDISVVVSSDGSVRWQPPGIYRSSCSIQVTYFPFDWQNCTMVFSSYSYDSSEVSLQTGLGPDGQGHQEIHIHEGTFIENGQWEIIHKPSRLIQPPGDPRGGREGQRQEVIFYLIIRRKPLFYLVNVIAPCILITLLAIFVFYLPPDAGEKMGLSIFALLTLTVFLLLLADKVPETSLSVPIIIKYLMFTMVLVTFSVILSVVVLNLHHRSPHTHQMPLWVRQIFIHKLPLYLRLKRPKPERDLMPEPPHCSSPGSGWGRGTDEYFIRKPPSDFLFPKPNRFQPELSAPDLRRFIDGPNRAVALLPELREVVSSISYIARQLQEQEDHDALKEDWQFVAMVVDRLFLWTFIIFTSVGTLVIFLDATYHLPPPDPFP
T3 sequence (P02708 21-457): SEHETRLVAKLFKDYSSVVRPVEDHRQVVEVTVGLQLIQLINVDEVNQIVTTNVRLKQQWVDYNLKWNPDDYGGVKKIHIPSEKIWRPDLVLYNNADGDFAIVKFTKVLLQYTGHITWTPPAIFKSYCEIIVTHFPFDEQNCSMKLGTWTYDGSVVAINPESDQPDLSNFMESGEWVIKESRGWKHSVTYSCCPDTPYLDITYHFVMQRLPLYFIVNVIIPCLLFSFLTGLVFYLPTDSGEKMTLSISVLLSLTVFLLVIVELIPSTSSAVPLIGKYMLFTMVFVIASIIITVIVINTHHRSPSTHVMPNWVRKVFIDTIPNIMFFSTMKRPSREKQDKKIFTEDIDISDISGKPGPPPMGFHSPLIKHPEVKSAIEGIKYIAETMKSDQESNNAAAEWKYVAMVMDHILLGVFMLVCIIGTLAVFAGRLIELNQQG
T3 sequence (Q07001 22-517): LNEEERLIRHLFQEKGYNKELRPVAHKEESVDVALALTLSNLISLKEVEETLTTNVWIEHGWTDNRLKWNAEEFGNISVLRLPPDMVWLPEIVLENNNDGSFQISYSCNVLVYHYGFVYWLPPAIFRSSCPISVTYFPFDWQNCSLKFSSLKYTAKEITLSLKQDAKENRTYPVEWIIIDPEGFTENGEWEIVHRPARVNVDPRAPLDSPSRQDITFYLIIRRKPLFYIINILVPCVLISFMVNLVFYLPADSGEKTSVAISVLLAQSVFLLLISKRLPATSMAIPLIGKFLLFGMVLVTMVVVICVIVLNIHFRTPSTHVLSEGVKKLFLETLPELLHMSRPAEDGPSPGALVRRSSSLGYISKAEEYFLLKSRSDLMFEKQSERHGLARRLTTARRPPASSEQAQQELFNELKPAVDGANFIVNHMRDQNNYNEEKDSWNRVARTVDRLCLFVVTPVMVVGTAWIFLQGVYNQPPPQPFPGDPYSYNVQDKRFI
T3 sequence (P07510 23-517): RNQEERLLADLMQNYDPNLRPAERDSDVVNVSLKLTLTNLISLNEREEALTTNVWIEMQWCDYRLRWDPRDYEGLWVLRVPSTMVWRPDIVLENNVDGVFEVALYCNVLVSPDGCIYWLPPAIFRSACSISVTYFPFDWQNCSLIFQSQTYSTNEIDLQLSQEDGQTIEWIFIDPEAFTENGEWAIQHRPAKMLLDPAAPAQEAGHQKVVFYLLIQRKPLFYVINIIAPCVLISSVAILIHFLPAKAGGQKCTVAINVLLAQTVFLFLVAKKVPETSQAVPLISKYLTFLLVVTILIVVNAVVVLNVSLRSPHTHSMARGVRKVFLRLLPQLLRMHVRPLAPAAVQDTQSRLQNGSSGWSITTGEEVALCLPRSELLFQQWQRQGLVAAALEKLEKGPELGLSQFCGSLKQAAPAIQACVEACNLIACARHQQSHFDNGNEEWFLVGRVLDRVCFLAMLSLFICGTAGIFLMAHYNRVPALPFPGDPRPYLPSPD

[2] = CNS safety pharmacology, body temperature; type: in vivo, Rat: Sprague-Dawley; details: po, doses up to and including 100 mg/kg
pKa = type: physicochemical
[3] = Single dose pharmacokinetics, rat; type: in vivo, Sprague-Dawley rat; details: for AUC(0-t): read-out: AUC0-1
[4] = Single dose pharmacokinetics, monkey; type: in vivo, Cyno monkey; details: plasma; for AUC(0-t): t = 168 h, read-out: AUC0-1; for AUC(0-inf): read-out: AUCinf, unchanged parent
Procedure: In a monkey study, [^14C]-Compound 1 was given at 10 mg/kg orally or 5 mg/kg by iv infusion. Oral bioavailability in this study was about 30%.

[5] = Clinical studies with oral formulation; type: in vivo
Source text: The drug substance for Compound 1 nasal spray was previously used in clinical trials as an oral formulation. […] Compound 1 is re-formulated as a nasal spray.

plasma protein binding = type: in vitro ADME; details: mouse, rat, guinea pig, dog, monkey and human plasma; concentrations up to about 113 μM
[6] = 13-week repeat-dose oral toxicity in Cynomolgus monkeys; type: in vivo, Cynomolgus monkey; details: for AUC / Cmax: plasma, po, at the NOAEL (30 mg/kg); for incidence of mild interstitial vacuolization in the heart: 60 mg/kg
Procedure: Compound 1 was given to Cynomolgus monkeys once daily for at least 13 weeks via oral gavage at doses of 10, 30, or 60 mg/kg/day. At the end of the dosing period, 2 monkeys per sex in the high-dose and control dose groups were selected for a recovery of 4 weeks. […] In the surviving monkeys at 60 mg/kg/day, clinical observations included emesis, decreased motor activity, body weight loss, slight increases in QT (up to +16%), QTcB (up to +9.2%), and QTcF (up to +11%) intervals that were associated with slight decreases in heart rate. These findings had resolved by the end of the 4-week recovery period. […] At 30 mg/kg, all animals had emesis, but they had fewer episodes of emesis than the animals dosed at 60 mg/kg. The dose of 30 mg/kg was well tolerated and was considered the NOAEL, Cmax and AUC increased less than proportionally at doses between 10 and 30 mg/kg.

rat bone marrow = test: in vivo rat bone marrow micronucleus test
Source text: Compound 1 was negative for mutagenicity in both in vitro bioassays—including an Ames test, a micronucleus test in mouse lymphoma cells, and a chromosome aberration assay using cultured human peripheral blood lymphocytes—and an in vivo rat bone marrow micronucleus test.

[7] = single-dose nasal spray tolerability and PK in rabbits; type: in vivo, New Zealand White rabbit; details: male rabbits
Procedure: The potential toxicity and TK of Compound 1 nasal spray was assessed following a single spray (100 μL) of either 2% or 5% Compound 1 in the right nostril of male New Zealand White rabbits (N=36). Phosphate buffered solution (PBS) served as the control and was sprayed (100 μL) in the left nostril. Bioanalytical and histopathological analyses were conducted at 1, 3, 6, 9, and 24 h post-treatment. Prior to sacrifice, the intranasal/nasal area of each animal was assessed using the Draize Classification System for Scoring Skin Irritation.

[8] = a4b2 HS (high sensitivity), 29° C., Ca++ Flux
[9] = Sprague-Dawley, plasma, S-D rat, 30 mg/kg [14C]-Compound 1, oral
[10] = male, Sprague-Dawley, plasma, S-D rat, 0.3 mg/kg Compound 1, oral
[11] = male, Sprague-Dawley, plasma, S-D rat, 3 mg/kg Compound 1, oral
[12] = cynomolgus monkey, Cyno monkey, 5 mg/kg [14C]-Compound 1, 20-minute intravenous
[13] = cynomolgus monkey, Cyno monkey, 10 mg/kg [14C]-Compound 1, oral
[14] = female, cynomolgus monkey, females
[15] = surviving monkeys, 60 mg/kg/day

Question: Which results are given for `C(=C\[C@H]1CCNC1)/c1cncnc1` [Compound 1, (R)-5-((E)-2-pyrrolidin-3-ylvinyl)pyrimidine]?
Answer: Ki (human α3β2): 27 nM; Ki ([1]; Human ganglion-type (a3b4*), assay and tissue type not given): 8800 nM; Ki ([1]; [3H]-epibatidine, SH-SY5Y membranes): 600 nM and 620 nM; Ki (a6b3b4a5): 1100 nM; EC50 (human α4β2; Ca++ flux, SH-EP1 cells expressing human α4β2): 5300 nM; Emax (human α4β2; Ca++ flux, SH-EP1 cells expressing human α4β2, read-out: Emax): 120%; EC50 (human α4β2; Human a4b2, Ca++ Flux): 5300 nM; (Imax) (human α4β2; a4b2 HS 29° C., Ca++ Flux): 98; EC50 (human α4β2; [8]): 3300 nM; IC50 (human α4β2; [8]): 430 nM; DC50 (human α4β2; a4b2 LS 37° C., Ca++ Flux): 450 nM; Dmax (human α4β2; a4b2 LS 37° C., Ca++ Flux): 98%; EC50 (human α4β2; a4b2 LS (low sensitivity), 37° C., Ca++ Flux): 5300 nM; Emax (human α4β2; high sensitivity subtype (α4β2)2β2, read-out: Emax): 120%; EC50 (human α4β2; human α4β2-containing nAChR): 600 nM; IC50 (human α4β2; low sensitivity subtype (LS)): 450 nM; Emax (human α4β2; read-out: Emax compared to nicotine, human α4β2-containing nAChR): 120%; agonist type (human α4β2; α4β2 nicotine receptor subtype): full agonist; EC50 (muscle receptor (α1β1δγ)): 15000 nM; Emax (muscle receptor (α1β1δγ); TE-671, Human muscle-type, Ca++ Flux): 42%; Emax (muscle receptor (α1β1δγ); TE-671, Human muscle-type, Rb+ Flux, single point): 12%; Emax (muscle receptor (α1β1δγ); TE-671, TE671 cells): 42%; effect on body temperature [2]: no noteworthy changes; also recorded: Compound 1 had no effect on body; pKa (pKa; read-out: pKa(1)): 1.73; pKa (pKa; read-out: pKa(2)): 10.3; Cmax [3, 9]: 1710 ng/mL; Tmax [3, 9]: 0.25 h; AUC(0-t) ([3]; Sprague-Dawley, plasma, S-D rat, 30 mg/kg [14C]-Compound 1, oral, t = 168 h): 3310 ng·h/mL; half-life ([3]; Sprague-Dawley, plasma, S-D rat, 30 mg/kg [14C]-Compound 1, oral, read-out: t1/2 (converted)): 1.2 h; Cmax and AUC0-24 vs dose ([3]; male rats, 3 mg/kg group vs 0.3 mg/kg, oral): higher than dose-proportional; Cmax [3, 10]: 6.51 ng/mL; Tmax [3, 10]: 0.5 h; AUC(0-t) ([3]; male, Sprague-Dawley, plasma, S-D rat, 0.3 mg/kg Compound 1, oral, t = 25 h): 13.5 ng·h/mL; half-life ([3]; male, Sprague-Dawley, plasma, S-D rat, 0.3 mg/kg Compound 1, oral, read-out: t1/2 (converted)): 1.4 h; Cmax [3, 11]: 169 ng/mL; Tmax [3, 11]: 0.167 h; AUC(0-t) ([3]; male, Sprague-Dawley, plasma, S-D rat, 3 mg/kg Compound 1, oral, t = 25 h): 211 ng·h/mL; half-life ([3]; male, Sprague-Dawley, plasma, S-D rat, 3 mg/kg Compound 1, oral, read-out: t1/2 (converted)): 1.4 h; Kp ([3]; male, Sprague-Dawley, rat, brain, oral, 0.3 or 3 mg/kg orally, read-out: brain exposure as share of plasma exposure): ~0.15; half-life ([3]; male, Sprague-Dawley, rat, plasma and brain, po, 0.3 or 3 mg/kg orally, read-out: half-life (plasma and brain concentrations) (converted)): 1.4 h; Tmax [4, 12]: 0.333 h; AUC(0-t) [4, 12]: 1530 ng·h/mL; half-life ([4]; cynomolgus monkey, Cyno monkey, 5 mg/kg [14C]-Compound 1, 20-minute intravenous, read-out: t1/2 (converted)): 2.1 h; Tmax [4, 13]: 2.25 h; AUC(0-t) [4, 13]: 942 ng·h/mL; bioavailability ([4]; cynomolgus monkey, Cyno monkey, 10 mg/kg [14C]-Compound 1, oral, read-out: F (oral bioavailability)): 31.1%; half-life ([4]; cynomolgus monkey, Cyno monkey, 10 mg/kg [14C]-Compound 1, oral, read-out: t1/2 (converted)): 1.9 h; AUC(0-inf) ([4]; cynomolgus, 5 mg/kg iv infusion): 1530 ng·h/mL; Cmax ([4]; cynomolgus, Cyno monkey, 5 mg/kg [14C]-Compound 1, 20-minute intravenous): 2030 ng/mL; Cmax ([4]; cynomolgus, Cyno monkey, 10 mg/kg [14C]-Compound 1, oral): 254 ng/mL; bioavailability ([4]; cynomolgus, oral, [14C]-Compound 1, 10 mg/kg orally vs 5 mg/kg iv infusion, read-out: Oral bioavailability): ~30%; AUC(0-inf) ([4]; cynomolgus, po, 10 mg/kg orally): 969 ng·h/mL; half-life ([4]; cynomolgus, po, 10 mg/kg orally, read-out: half-life, unchanged parent (converted)): 1.9 h; efficacy in clinical studies [5]: failed to reach efficacy endpoints; safety in clinical studies [5]: considered safe; fraction unbound (plasma protein binding): > 0.87; NOAEL at 13 weeks ([6]; both sexes, cynomolgus monkey, in vivo, Cynomolgus monkeys, oral gavage once daily, 13 weeks): 30 mg/kg; AUC [6, 14]: 2440 ng·h/mL; Cmax [6, 14]: 696 ng/mL; incidence of mild interstitial vacuolization in the heart ([6]; females): 2 of 3; AUC ([6]; male, cynomolgus monkey, males): 1670 ng·h/mL; Cmax ([6]; male, cynomolgus monkey, males): 382 ng/mL; incidence of mild interstitial vacuolization in the heart ([6]; males): 1 of 2; body weight loss vs. Day 1 value ([6]; one monkey at 60 mg/kg/day sacrificed during the fourth week): −22%; increase in QT interval [6, 15]: up to +16%; increase in QTcB interval [6, 15]: up to +9.2%; increase in QTcF interval [6, 15]: up to +11%; mutagenicity, bone marrow micronucleus test (rat bone marrow): negative; intranasal/nasal assessment (Draize) ([7]; single 100 μL spray of 2% or 5%): no signs of erythema, edema, eschar formation or discharge; clinical signs ([7]; single 100 μL spray of 2% or 5% in right nostril): No clinical signs were observed; histopathology of the nasal cavity ([7]; single 100 μL spray of 2% or 5%, 1 to 24 h post-treatment): no macroscopic or microscopic findings
